Paper PMC9218946, “Identification of a Subtype-Selective Allosteric Inhibitor of GluN1/GluN3 NMDA Receptors” (Frontiers in Pharmacology, 2022)

Experiments:
[1] = tested on: GluN1/GluN3A with mutations in the pre-M1 region of the GluN1 subunit; test: Whole-cell patch-clamp on transiently transfected CHO cells, GluN1 pre-M1 alanine mutants; assay type: cell-based
Experimental: (§1) To establish GluN1/GluN3A stable cell lines, the human GluN1-1a (GenBank: NP_015566.1) and the rat GluN3A (GenBank: NP_612555.1) genes were subcloned into the pcDNA5-FRT-To and pcDNA3.1 vectors, respectively. An EGFP tag was added to the C-terminus of GluN1 or GluN3A using a T2A linker for identification of transfected cells during transient transfection. Point mutations were introduced by site-directed mutagenesis using PrimeSTAR (Takara). The human GluN2A (GenBank: NP_000824.1) gene was subcloned into the pcDNA3.1 vector. The chimeras GluN3A^670-673 MWPL/LEPF and GluN2A^550-553 LEPF/MWPL were generated using In-Fusion HD Cloning kits (Takara). All constructs were confirmed by DNA sequencing (Beijing Genomics Institute).
(§2) The Flp-in T-Rex 293 cell lines (Invitrogen), stably expressing GluN1/GluN3A were grown in DMEM basal medium (Gibco) supplemented with 10% fetal bovine serum (FBS, Invitrogen), 15 μg/ml blasticidin S (Invitrogen), 50 μg/ml hygromycin B (Invitrogen) and 500 μg/ml G418 (Gibco). Expression in cell lines was induced with 1 μg/ml doxycycline (Invitrogen) 24–28 h prior to the experiments. Chinese hamster ovary (CHO) cells were grown in DMEM-F12 basal medium (Gibco) supplemented with 10% FBS. In the study on the action sites of WZB117, all whole-cell patch-clamp recordings were performed on CHO cells. […]

GluN1/GluN3A receptors = GluN1/GluN3A receptors (UniProt Q05586+Q9R1M7); test: TEVC recording in Xenopus oocytes expressing GluN1/GluN3A; assay type: cell-based; set-up: expressed in transfected cells; host or cells: Xenopus oocytes (cDNA/cRNA injection); conditions: 30 μM WZB117, Xenopus oocytes
Experimental: Two-electrode voltage-clamp (TEVC) recordings were performed on Xenopus oocytes expressing various subtypes of recombinant NMDARs. Each oocyte was injected with a mixture of 0.5–1.0 ng cDNAs or cRNAs encoding wild-type (WT) or mutant GluN1 (GluN1-1a or GluN1-4a) and GluN2 (2A-2D) or GluN3 (3A-3B) at a ratio of 1:1. The mutant GluN1-4a ^F484A/T518L was injected together with GluN3B to boost the currents of GluN1/GluN3B receptors, and WT GluN1-1a was used unless otherwise stated. The cRNAs of GluN1-4a, GluN3A and GluN3B were transcribed from corresponding DNAs using the mMESSAGE mMACHINE T7 Ultra kit (Life Technologies) according to the manufacturer’s instructions, and the others not specified were cDNAs. TEVC recording was performed 24–72 h post injection in extracellular solution containing (in mM): 100 NaCl, 0.3 BaCl2, 2.5 KCl, 0.01 DTPA and 5 HEPES, and the pH was adjusted to 7.3 using NaOH. All recordings were carried out at a holding potential of −60 mV.

[2] = tested on: GluN1/GluN3A with mutations W671A and L673A of the GluN3A subunit; test: Whole-cell patch-clamp on transiently transfected CHO cells, GluN3A pre-M1 alanine mutants; assay type: cell-based
Experimental: as §1, §2

KA receptors = test: Whole-cell patch-clamp, KA-induced currents in acutely isolated hippocampal neurons; assay type: cell-based, rat; conditions: 10 μM WZB117
Experimental: Hippocampal neurons were obtained from Sprague-Dawley rats (aged P7-14). Briefly, the isolated hippocampal tissues were cut into approximately […] slices along the sagittal plane and were digested with 3 mg/ml proteinase (Sigma-Aldrich) at 32°C for 8 min. Then 1 mg/ml bovine serum albumin (Sangon Biotech) and 1 mg/ml trypsin inhibitor (Sigma-Aldrich) were used to stop the digestion. A few slices of the hippocampus were gently blown into single cells with the dissecting solution, then transferred to a dish and left to rest for 20 min before experiments. The dishes were preprocessed. Essentially, the bottom of the dish was covered with discarded cell suspension the day before the experiment and was washed and dried the next day, which prevented the neurons from sticking to the bottom too tightly. The dissecting solution contained (in mM): 82 Na2SO4, 30 K2SO4, 5 MgCl2, 1 Na pyruvate, 10 HEPES, and 20 glucose. The pH was adjusted to 7.2 using NaOH ([Xie et al., 2020]).
Whole-cell patch-clamp recordings were performed at room temperature (22–25°C) using an EPC-10 amplifier and Patch Master Software (HEKA). Pipettes were pulled from borosilicate glass capillaries (World Precision Instruments), and the resistances were 3–5 MΩ when filled with the intracellular solution. […]

Sequence of GluN1/GluN3A receptors (Q9R1M7 24-1135, other chains not shown): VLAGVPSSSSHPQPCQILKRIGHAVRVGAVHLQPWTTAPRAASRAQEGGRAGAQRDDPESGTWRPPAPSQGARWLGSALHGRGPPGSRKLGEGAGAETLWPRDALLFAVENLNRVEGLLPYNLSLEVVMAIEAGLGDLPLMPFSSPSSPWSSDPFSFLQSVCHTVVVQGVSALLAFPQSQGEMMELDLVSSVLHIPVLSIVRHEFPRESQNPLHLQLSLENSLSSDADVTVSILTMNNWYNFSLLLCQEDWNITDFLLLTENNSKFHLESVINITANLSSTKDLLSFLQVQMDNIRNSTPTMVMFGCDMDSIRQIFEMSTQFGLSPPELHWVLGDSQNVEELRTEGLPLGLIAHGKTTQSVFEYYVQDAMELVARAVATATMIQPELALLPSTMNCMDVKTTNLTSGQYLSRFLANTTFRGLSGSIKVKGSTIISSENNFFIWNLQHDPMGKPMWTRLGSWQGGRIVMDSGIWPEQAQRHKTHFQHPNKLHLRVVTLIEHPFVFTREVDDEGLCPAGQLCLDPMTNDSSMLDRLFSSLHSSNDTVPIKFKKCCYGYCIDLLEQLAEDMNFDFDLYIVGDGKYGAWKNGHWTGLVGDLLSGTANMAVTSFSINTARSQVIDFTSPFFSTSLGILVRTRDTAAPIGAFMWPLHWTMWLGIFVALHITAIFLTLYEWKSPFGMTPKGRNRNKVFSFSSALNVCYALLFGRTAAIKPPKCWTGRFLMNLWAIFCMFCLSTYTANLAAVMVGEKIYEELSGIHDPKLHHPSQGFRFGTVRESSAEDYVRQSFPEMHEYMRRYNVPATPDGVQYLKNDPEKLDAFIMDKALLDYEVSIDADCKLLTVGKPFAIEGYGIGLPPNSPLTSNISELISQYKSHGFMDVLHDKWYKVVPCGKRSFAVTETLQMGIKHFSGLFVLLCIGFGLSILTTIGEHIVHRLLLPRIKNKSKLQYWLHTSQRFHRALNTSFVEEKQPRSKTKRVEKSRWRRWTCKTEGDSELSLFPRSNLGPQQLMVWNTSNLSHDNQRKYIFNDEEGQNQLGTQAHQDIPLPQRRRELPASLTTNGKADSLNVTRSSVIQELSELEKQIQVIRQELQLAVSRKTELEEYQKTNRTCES

O=C(Oc1cccc(F)c1OC(=O)c1cccc(O)c1)c1cccc(O)c1 [WZB117, 3-fluoro-1,2-phenylene bis(3-hydroxybenzoate)]
influence of mutations on activity [1]: none of the mutations in the pre-M1 region of the GluN1 subunit showed a detectable influence | inhibition of currents (GluN1/GluN3A receptors): potently suppressed | influence of mutations on inhibitory effect [2]: significantly influenced the inhibitory effect | effect on KA-induced currents (KA receptors): little effect
